Data reported in publication PMC6278366, “Synthesis and Evaluation of Anticancer Activities of Novel C-28 Guanidine-Functionalized Triterpene Acid Derivatives” (Molecules, 2018).
Structures can show the parent of a compound that is named as a salt.

What was measured:
[1] = test system: Jurkat (T-lymphoblastic leukemia) cells; assay: cells; format: cell-based; details: Homo sapiens, Jurkat, mean ± SE, at least three experiments in duplicate; viable cells; read-out: IC50 Jurkat
Procedure, shortened: (§1)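 Suspension lines in RPMI 1640 with 10% FBS at 37 °C, 5% CO2, treated with compounds at 1, 5, 10, 15, 30 and 60 μM. Live/dead status by 7-AAD staining (15 min, room temperature, dark) read on flow cytometer, 488 nm excitation, 675/30 nm emission.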

[2] = test system: HEK293 (embryonic kidney) cells; assay: Cytotoxicity assay (7-AAD viability, flow cytometry), HEK293; format: cell-based, human; details: Homo sapiens, HEK293, mean ± SE, at least three experiments in duplicate; viable cells
Procedure, shortened: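 Adherent HeLa, HEK293 and normal human fibroblasts (5 × 10⁴/well, DMEM with 10% FBS, 37 °C, 5% CO2) were treated with compounds at 1, 5, 10, 15, 30 and 60 μM. Viability was read as 7-AAD exclusion by flow cytometry after 15 min staining.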

normal human fibroblasts = assay: Cytotoxicity assay (7-AAD viability, flow cytometry), normal fibroblasts; format: cell-based; details: Homo sapiens, Fibroblast, mean ± SE, at least three experiments in duplicate
[3] = test system: K562 (chronic myeloid leukemia) cells; assay: Cytotoxicity assay (7-AAD viability, flow cytometry), K562; format: cell-based, human; details: Homo sapiens, K562, mean ± SE, at least three experiments in duplicate; viable cells; read-out: IC50 K562
Procedure, shortened: as §1

[4] = test system: U937 (histiocytic lymphoma) cells; assay: Cytotoxicity assay (7-AAD viability, flow cytometry), U937; format: cell-based, human; details: Homo sapiens, U-937, mean ± SE, at least three experiments in duplicate; viable cells; read-out: IC50 U937
Procedure, shortened: as §1

Row | SMILES | IC50 [1] [µM] | IC50 [2] [µM] | IC50 (normal human fibroblasts) [µM] | IC50 [3] [µM] | IC50 [4] [µM]
1 | CC(=O)O[C@H]1CC[C@@]2(C)C(CC[C@]3(C)C2CCC2C4C(C(C)C)CC[C@]4(C(=O)OCC(N)(CO)CO)CC[C@]23C)C1(C)C (stereo partly drawn) [Compound 15, 3β-[2-Amino-3-hydroxy-2-(hydroxymethyl)propyl]-3-O-acetyl-lupane-28-oate] | 3.3 ± 0.11 | 17 ± 0.25 | 31 ± 0.29 | 2.1 ± 0.13 | 6.6 ± 0.23
2 | CC(=O)O[C@H]1CC[C@@]2(C)C(CC[C@]3(C)C2CCC2C4C(C(C)C)CC[C@]4(C(=O)OCC(CO)(CO)NC(=N)N)CC[C@]23C)C1(C)C (stereo partly drawn) [Compound 15c, 3β-[2-Guanidine-3-hydroxy-2-(hydroxymethyl)propyl]-3-O-acetyl-lupane-28-oate hydrochloride] | 3.1 ± 0.41 | 16 ± 0.27 | 27 ± 0.14 | 2.3 ± 0.34 | 15 ± 0.23
